Experimental data: patent US6376478B1, “Pharmaceutical compositions and methods for treating anxiety, anxiety disorders and memory impairment using naaladase inhibitors” (Guilford Pharmaceuticals Inc., priority 1999, dated 2002)
Where “and” joins values, the source holds several entries; their conditions need not be identical. Identical values can stand only once. Marks after values point to notes of the source that are not given here.

Legend:
[1] = biological target: NAALADase (Homo sapiens, UniProt Q04609); assay: In vitro inhibition of NAALADase activity; type: biochemical
NAALADase, sequence (Q04609 whole entry): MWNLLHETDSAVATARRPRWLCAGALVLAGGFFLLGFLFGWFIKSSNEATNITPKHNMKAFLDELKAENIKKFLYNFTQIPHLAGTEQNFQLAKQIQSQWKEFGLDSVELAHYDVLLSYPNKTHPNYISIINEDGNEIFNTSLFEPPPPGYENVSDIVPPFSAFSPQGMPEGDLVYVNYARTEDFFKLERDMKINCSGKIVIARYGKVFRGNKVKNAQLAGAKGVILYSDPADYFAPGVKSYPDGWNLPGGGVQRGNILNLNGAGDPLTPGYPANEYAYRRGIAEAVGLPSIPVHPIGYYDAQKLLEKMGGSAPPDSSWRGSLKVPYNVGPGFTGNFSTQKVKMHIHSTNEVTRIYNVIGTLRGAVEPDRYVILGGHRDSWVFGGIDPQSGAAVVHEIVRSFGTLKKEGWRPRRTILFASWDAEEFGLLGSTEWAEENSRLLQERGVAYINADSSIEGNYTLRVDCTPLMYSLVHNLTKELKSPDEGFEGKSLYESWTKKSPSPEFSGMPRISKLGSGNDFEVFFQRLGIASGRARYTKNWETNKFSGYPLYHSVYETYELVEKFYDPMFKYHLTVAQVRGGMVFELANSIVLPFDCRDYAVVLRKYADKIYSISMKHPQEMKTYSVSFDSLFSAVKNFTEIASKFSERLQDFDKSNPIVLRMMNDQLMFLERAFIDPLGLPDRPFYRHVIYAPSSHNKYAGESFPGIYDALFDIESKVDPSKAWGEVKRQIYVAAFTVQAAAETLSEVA

[2] = Passive avoidance anxiolytic model (shuttlebox, latency to cross); type: in vivo; details: for performance compared with flurazepam in passive avoidance: in some experiments
Source text: The passive avoidance test consists of an acquisition and a retention trial. On the day prior to dosing, the animal is placed into the shuttlebox and allowed to acclimate. A conditioned stimulus (light) is presented for approximately 100 seconds. When the animal crosses to the dark compartment, a mild (0.5 mA) footshock is presented until the animal returns to the lighted compartment or for approximately 10 seconds. Animals failing to cross during acquisition trial is randomly replaced. The day following acquisition, animals are administered test article, saline or flurazepam 10 minutes prior to being placed in the shuttlebox and tested for retention as described above. Latency to cross (in seconds) is recorded.

[3] = Flurazepam 3 mg/kg IP group, acquisition is on the day prior to dosing
[4] = Flurazepam 5 mg/kg IP group, Table I second study, day prior to dosing
[5] = Flurazepam 5 mg/kg IP, Table I second study
[6] = Table II, Flurazepam 5 mg/kg IP

Compound	Ki [1] [nM]	further results
O=C(O)CCC(CC(S)c1cccc2ccccc12)C(=O)O (stereo not shown)	10000	–
O=C(O)CCC(CP(=O)(O)Cc1ccccc1)C(=O)O (stereo not shown)	53	–
O=C(O)CCC(CP(=O)(O)c1ccccc1)C(=O)O (stereo not shown)	36	–
CCCCP(=O)(O)CC(CCC(=O)O)C(=O)O (stereo not shown)	114	–
Cc1cccc(P(=O)(O)CC(CCC(=O)O)C(=O)O)c1 (stereo not shown)	180	–
O=C(O)CCC(CP(=O)(O)CCc1ccccc1)C(=O)O (stereo not shown)	148	–
O=C(O)CCC(CP(=O)(O)CCCc1ccccc1)C(=O)O (stereo not shown)	232	–
O=C(O)CCC(CP(=O)(O)c1ccc(F)cc1)C(=O)O (stereo not shown)	532	–
CP(=O)(O)CC(CCC(=O)O)C(=O)O (stereo not shown)	1100	–
Cc1ccc(CP(=O)(O)CC(CCC(=O)O)C(=O)O)cc1 (stereo not shown)	68	–
O=C(O)CCC(CP(=O)(O)Cc1ccc(F)cc1)C(=O)O (stereo not shown)	70	–
O=C(O)CCC(CP(=O)(O)Cc1ccccc1F)C(=O)O (stereo not shown)	145	–
Cc1ccc(P(=O)(O)CC(CCC(=O)O)C(=O)O)cc1 (stereo not shown)	204	–
O=C(O)C(CCc1ccccc1)CP(=O)(O)O (stereo not shown)	199	–
O=C(O)CCCC(CP(=O)(O)O)C(=O)O (stereo not shown)	185	–
O=C(O)CCC(CP(=O)(O)Cc1ccc(OCc2ccccc2)cc1)C(=O)O (stereo not shown)	177	–
O=C(O)CCC(CP(=O)(O)Cc1cccc(C(F)(F)F)c1)C(=O)O (stereo not shown)	22	–
O=C(O)CCC(CP(=O)(O)Cc1ccccc1C(F)(F)F)C(=O)O (stereo not shown)	92	–
O=C(O)CCC(CP(=O)(O)Cc1ccc(O)cc1)C(=O)O (stereo not shown)	117	–
CC(CP(=O)(O)O)C(=O)O (stereo not shown)	2	–
O=C(O)C(Cc1ccccc1)CP(=O)(O)O (stereo not shown)	548	–
O=C(O)CCP(=O)(O)O	234	–
COC(=O)c1ccc(CP(=O)(O)CC(CCC(=O)O)C(=O)O)cc1 (stereo not shown)	740	–
CC(C)(C)OC(=O)CCC(CP(=O)(CC(CCC(=O)O)C(=O)O)OC(C)(C)C)C(=O)OC(C)(C)C (stereo not shown)	4250	–
O=C(O)CCC(CP(=O)(O)CC(CCC(=O)OCc1ccccc1)C(=O)OCc1ccccc1)C(=O)O (stereo not shown)	13	–
O=C(O)CCC(CP(=O)(O)CC(CCC(=O)O)C(=O)O)C(=O)O (stereo not shown)	0.6	–
CC(CP(=O)(O)CC(CCC(=O)O)C(=O)O)C(=O)OCc1ccccc1 (stereo not shown)	95	–

Compound	Ki [1] [nM]	further results
CC(CP(=O)(O)CC(CCC(=O)O)C(=O)O)C(=O)O (stereo not shown)	2	–
O=C(O)CCC(CP(=O)(O)C(NCc1ccccc1)c1ccccc1)C(=O)O (stereo not shown)	313	–
O=C(O)CCC(CP(=O)(O)C(NC(=O)O)c1ccccc1)C(=O)O (stereo not shown)	2000	–
O=C(O)CCC(CP(=O)(O)CNCc1ccccc1)C(=O)O (stereo not shown)	52	–
CC(=O)NCP(=O)(O)CC(CCC(=O)O)C(=O)O (stereo not shown)	118	–
O=C(O)CCC(CP(=O)(O)CN(Cc1ccccc1)Cc1ccccc1)C(=O)O (stereo not shown)	175	–
O=C(O)CCC(CP(=O)(O)CN1C(=O)c2ccccc2C1=O)C(=O)O (stereo not shown)	34	–
O=C(O)CCC(CP(=O)(O)CNC(=O)c1ccccc1)C(=O)O (stereo not shown)	142	–
O=C(O)CCC(CP(=O)(O)CNS(=O)(=O)c1ccccc1)C(=O)O (stereo not shown)	90	–
O=C(O)CCC(CP(=O)(O)CNc1ccc(F)cc1)C(=O)O (stereo not shown)	9	–
COc1ccc(NCP(=O)(O)CC(CCC(=O)O)C(=O)O)cc1 (stereo not shown)	2	–
Cc1ccc(NCP(=O)(O)CC(CCC(=O)O)C(=O)O)cc1 (stereo not shown)	5	–
CC(C)(C)c1ccc(NCP(=O)(O)CC(CCC(=O)O)C(=O)O)cc1 (stereo not shown)	2	–
O=C(O)CCC(CP(=O)(O)CNC(=S)Nc1ccccc1)C(=O)O (stereo not shown)	75	–
CC(CS)CC(CCC(=O)O)C(=O)O (mixture of isomers) [2-(3-sulfanyl-2-methylpropyl)pentanedioic acid]	239	–
CCC(CS)C(CCC(=O)O)C(=O)O (stereo not shown) [2-(1-ethyl-2-sulfanylethyl)pentanedioic acid]	1550	–
CC(CS)C(CCC(=O)O)C(=O)O (stereo not shown) [2-(1-methyl-2-sulfanylethyl)penanedioic acid]	843	–
CCCCC(S)CC(CCC(=O)O)C(=O)O (stereo not shown) [2-(2-sulfanylhexyl)pentanedioic acid]	4750	–
O=C(O)CCC(CCCS)C(=O)O (stereo not shown) [2-(3-sulfanylpropyl)pentanedioic acid]	–	anxiolytic properties in passive avoidance ([2]; Example 15, written in present tense): exhibit anxiolytic properties
O=C(O)CC(CP(=O)(O)O)C(=O)O (stereo not shown) [2-(phosphonomethyl) succinic acid]	700	–
O=C(O)CCC(CCSSCCC(CCC(=O)O)C(=O)O)C(=O)O (stereo not shown) [2-[2-[(3,5-dicarboxypentyl)dithio]ethyl]pentanedioic acid]	16500	–
O=C(O)CCC(CP(=O)(O)CCC(=O)O)C(=O)O (stereo not shown) [2-[[(2-carboxyethyl)hydroxyphosphinyl]methyl]pentanedioic acid]	2	–
O=C(O)CCC(CP(=O)(O)Cc1c(F)c(F)c(F)c(F)c1F)C(=O)O (stereo not shown) [Compound 2, 2-[[(2,3,4,5,6-pentafluorobenzyl)hydroxyphosphinyl]methyl]pentanedioic acid]	–	Latency to Cross, Acquisition Trial, MEAN ([2]; Compound 2 100 mg/kg IP group, first study (animals 31-45), day prior to dosing): 6.7 s; Latency to Cross, Acquisition Trial, individual animals ([2]; Compound 2 100 mg/kg IP group, first study (animals 31-45), day prior to dosing, 100 mg/kg): 4.0 seconds and 0.1 seconds (2×) and 14.9 seconds and 5.0 seconds and 6.4 seconds and 9.5 seconds and 4.6 seconds and 5.7 seconds and 13.0 seconds and 5.1 seconds and 6.2 seconds and 10.1 seconds and 4.3 seconds and 11.4 seconds; Latency to Cross, Acquisition Trial, MEAN ([2]; Compound 2 100 mg/kg IP group, second study (animals 103-414), day prior to dosing): 7.5 s; Latency to Cross, Acquisition Trial, individual animals ([2]; Compound 2 100 mg/kg IP group, second study (animals 103-414), day prior to dosing, 100 mg/kg): 0.0 s and 11.4 s and 12.1 s and 1.5 s and 1.6 s and 7.0 s and 6.8 s and 20.0 s and 2.3 s and 0.6 s and 9.6 s and 3.2 s and 10.4 s and 5.7 s and 18.7 s; Latency to Cross, Retention Trial, MEAN ([2]; Compound 2 100 mg/kg IP, first study (animals 31-45), significance difference compared to Group 1, p ≦ 0.05): 66.8^a seconds; Latency to Cross, Retention Trial, individual animals ([2]; Compound 2 100 mg/kg IP, first study (animals 31-45), stimulus about 100 seconds, 100 mg/kg): 9.8 seconds and 7.1 seconds and 4.8 seconds and 100.0 seconds (8×) and 88.4 seconds and 7.8 seconds and 15.8 seconds and 68.4 seconds; Latency to Cross, Retention Trial, MEAN ([2]; Compound 2 100 mg/kg IP, second study (animals 103-414), animal 406 omitted): 29.6 s; Latency to Cross, Retention Trial, individual animals ([2]; Compound 2 100 mg/kg IP, second study (animals 103-414), animal 406 omitted from statistical analysis, 100 mg/kg): 3.1 seconds and 33.9 seconds and 100.0 seconds (2×) and 13.2 seconds and 6.6 seconds and 39.4 seconds and 7.9 seconds and 33.2 seconds and 8.4 seconds and 41.5 seconds and 19.5 seconds and 7.3 seconds and 100.0^b seconds and 0.3 seconds; anxiolytic properties in passive avoidance ([2]; Example 14): exhibit anxiolytic properties; performance compared with flurazepam in passive avoidance ([2]; Example 14): performed better than the known anxiolytic agent, flurazepam
O=C(O)CCC(CP(=O)(O)O)C(=O)O (stereo not shown) [Compound 3, 2-(phosphonomethyl)pentanedioic acid]	–	Latency to Cross, Retention Trial, MEAN ([2]; Compound 3 100 mg/kg IP): 43.0 s; Latency to Cross, Acquisition Trial, MEAN ([2]; Compound 3 100 mg/kg IP group, day prior to dosing): 7.8 s; Latency to Cross, Acquisition Trial, individual animals ([2]; Compound 3 100 mg/kg IP group, day prior to dosing, 100 mg/kg): 11.8 s and 11.5 s and 9.2 s and 0.8 s and 0.6 s and 2.9 s and 18.6 s and 9.3 s and 0.2 s and 2.0 s and 5.9 s and 6.1 s and 25.0 s and 2.2 s and 10.5 s; Latency to Cross, Retention Trial, individual animals ([2]; Compound 3 100 mg/kg IP, stimulus about 100 seconds, 100 mg/kg): 100.0 seconds (4×) and 4.6 seconds and 9.9 seconds and 47.4 seconds and 12.9 seconds and 20.6 seconds and 6.6 seconds and 33.0 seconds and 89.8 seconds and 5.2 seconds and 5.9 seconds and 8.5 seconds; anxiolytic properties in passive avoidance ([2]; Example 14): exhibit anxiolytic properties; performance compared with flurazepam in passive avoidance ([2]; Example 14): performed better than the known anxiolytic agent, flurazepam
CCN(CC)CCN1C(=O)CN=C(c2ccccc2F)c2cc(Cl)ccc21 [Flurazepam, flurazepam, reference compound]	–	Latency to Cross, Acquisition Trial, MEAN [2, 3]: 10.1 s; Latency to Cross, Acquisition Trial, individual animals [2, 3]: 7.0 s and 9.5 s and 8.8 s and 2.8 s and 19.3 s and 5.4 s and 8.2 s and 28.2 s and 7.1 s and 2.4 s and 16.7 s and 8.4 s and 11.3 s and 6.9 s and 9.1 s; Latency to Cross, Retention Trial, MEAN ([2]; Flurazepam 3 mg/kg IP, 10 minutes before test): 47.5 s; Latency to Cross, Retention Trial, individual animals ([2]; Flurazepam 3 mg/kg IP, 10 minutes before test, stimulus about 100 seconds): 83.3 seconds and 100.0 seconds (4×) and 5.5 seconds and 4.7 seconds and 16.1 seconds and 65.3 seconds and 6.9 seconds and 2.1 seconds and 34.1 seconds and 2.2 seconds and 47.5 seconds and 34.9 seconds; Latency to Cross, Acquisition Trial, MEAN [2, 4]: 8.4 s; Latency to Cross, Acquisition Trial, individual animals [2, 4]: 6.6 s and 39.8 s and 2.7 s and 10.6 s and 0.5 s and 0.1 s and 7.4 s and 4.0 s and 4.9 s and 14.7 s and 10.1 s and 9.5 s and 1.9 s and 12.9 s and 0.7 s; Latency to Cross, Retention Trial, MEAN [2, 5]: 20.8 s; Latency to Cross, Retention Trial, individual animals [2, 5]: 11.2 s and 56.3 s and 10.5 s and 23.9 s and 6.5 s and 6.0 s and 13.4 s and 0.8 s and 21.4 s and 2.9 s and 67.2 s and 19.0 s and 58.3 s and 4.8 s and 9.7 s; Latency to Cross, Mean [2, 6]: 12.9 s; Latency to Cross, individual animals [2, 6]: 4.7 seconds and 9.6 seconds and 4.1 seconds (2×) and 26.0 seconds and 0.3 seconds (2×) and 4.0 seconds (2×) and 8.0 seconds and 3.5 seconds and 12.0 seconds and 16.9 seconds and 89.0 seconds and 6.4 seconds
O=C(O)CCC(CP(=O)(O)Cc1c(F)c(F)c(F)c(F)c1F)C(=O)O (stereo not shown) [drawing 45]	23	–
